Laboratory results: the supplement of paper PMC13380429

Legend:
U2OS [1] = test: cell viability relative to DMSO; higher = less toxic; conditions: 72 h
Vero E6 [2] = test: as above; conditions: 72 h
HepG2 [3] = test: as above; conditions: 72 h
Caco-2 [4] = test: as above; conditions: 72 h
Calu-3 [5] = test: as above; conditions: 72 h
[6] = system: A549-ACE2 infected with SARS-CoV-2; test: morphology score (similarity to uninfected cells); higher = more like uninfected cells; conditions: 24 h
A549-ACE2 [7] = test: phospholipidosis EC50; higher = less potent phospholipidosis inducer
[8] = system: A549-ACE2 infected with SARS-CoV-2; test: SARS-CoV-2 infection rate relative to DMSO; higher = more infection; conditions: 24 h
U2OS [9] = test: relative viability EC50 (midpoint between 100% and the lowest measured viability); higher = less toxic; conditions: 72 h
Vero E6 [10] = test: as above; conditions: 72 h
HepG2 [11] = test: as above; conditions: 72 h
Caco-2 [12] = test: as above; conditions: 72 h
Calu-3 [13] = test: as above; conditions: 72 h
A549-ACE2 [14] = test: drug-induced phospholipidosis relative to tamoxifen; higher = more phospholipidosis
U2OS [15] = test: drug sensitivity score (DSS) for viability; higher = more toxic; extreme values may be limits of the assay; conditions: 72 h
Vero E6 [16] = test: as above; conditions: 72 h
HepG2 [17] = test: as above; conditions: 72 h
Caco-2 [18] = test: as above; conditions: 72 h
Calu-3 [19] = test: as above; conditions: 72 h
[20] = system: A549-ACE2 infected with SARS-CoV-2; test: cell count relative to DMSO; higher = less toxic; conditions: 24 h

O=C(NCCCN1CCC2(CC1)OCc1ccccc12)[C@H]1CCCN1Cc1ccccc1 [BAN-ORL-24]
Conditions	SARS-CoV-2 infection rate [%]	cell count [%]	cell viability [%]	morphology score	phospholipidosis EC50 [µM]
A549-ACE2 [7], 24 h	–	–	–	–	9.61
A549-ACE2 [7], 48 h	–	–	–	–	9.12
A549-ACE2 [7], 72 h	–	–	–	–	15
Caco-2 [4], 1 nM	–	–	98.3	–	–
Caco-2 [4], 10 nM	–	–	103	–	–
Caco-2 [4], 100 nM	–	–	101	–	–
Caco-2 [4], 1000 nM	–	–	105	–	–
Caco-2 [4], 10000 nM	–	–	92.1	–	–
Calu-3 [5], 1 nM	–	–	104	–	–
Calu-3 [5], 10 nM	–	–	108	–	–
Calu-3 [5], 100 nM	–	–	114	–	–
Calu-3 [5], 1000 nM	–	–	105	–	–
Calu-3 [5], 10000 nM	–	–	87.1	–	–
HepG2 [3], 1 nM	–	–	97.5	–	–
HepG2 [3], 10 nM	–	–	109	–	–
HepG2 [3], 100 nM	–	–	103	–	–
HepG2 [3], 1000 nM	–	–	98.7	–	–
HepG2 [3], 10000 nM	–	–	89.2	–	–
U2OS [1], 1 nM	–	–	105	–	–
U2OS [1], 10 nM	–	–	105	–	–
U2OS [1], 100 nM	–	–	104	–	–
U2OS [1], 1000 nM	–	–	104	–	–
U2OS [1], 10000 nM	–	–	99.2	–	–
Vero E6 [2], 1 nM	–	–	94.8	–	–
Vero E6 [2], 10 nM	–	–	95.8	–	–
Vero E6 [2], 100 nM	–	–	91.6	–	–
Vero E6 [2], 1000 nM	–	–	93.2	–	–
Vero E6 [2], 10000 nM	–	–	99.5	–	–
[6], 0.3 µM	–	–	–	-0.05	–
[6], 3 µM	–	–	–	0.69	–
[6], 10 µM	–	–	–	0.81	–
[6], 30 µM	–	–	–	0.69	–
[8], 0.3 µM	98	–	–	–	–
[8], 3 µM	59	–	–	–	–
[8], 10 µM	33	–	–	–	–
[8], 30 µM	18	–	–	–	–
[20], 0.3 µM	–	98	–	–	–
[20], 3 µM	–	117	–	–	–
[20], 10 µM	–	117	–	–	–
[20], 30 µM	–	123	–	–	–

Conditions	drug sensitivity score	relative viability EC50 [µM]
Caco-2 [12]	–	> 10
Caco-2 [18]	0	–
Calu-3 [13]	–	> 10
Calu-3 [19]	0	–
HepG2 [11]	–	> 10
HepG2 [17]	0	–
U2OS [9]	–	> 10
U2OS [15]	0	–
Vero E6 [10]	–	> 10
Vero E6 [16]	0	–

drug-induced phospholipidosis [%], A549-ACE2 [14]
Conditions	0.3 µM	0.833333 µM	3.33333 µM	6.66667 µM	10 µM	30 µM
24 h	0.49	5.2	25.6	45.9	72.6	109
48 h	2.06	7.81	23.6	36.2	59.3	110
72 h	5.31	9.96	24.4	35	56.6	125

CC1=C(C(=O)OC2CCCCC2)C(c2ccc([N+](=O)[O-])cc2)C2=C(CC(C)(C)CC2=O)N1 (stereo unspecified) [FLI-06]
Conditions	SARS-CoV-2 infection rate, [8] [%]	cell count, [20] [%]	cell viability, Caco-2 [4] [%]	cell viability, Calu-3 [5] [%]	cell viability, HepG2 [3] [%]	cell viability, U2OS [1] [%]	cell viability, Vero E6 [2] [%]	morphology score, [6]
1 nM	–	–	102	104	98.5	101	94.2	–
10 nM	–	–	101	106	102	100	92.2	–
100 nM	–	–	100	92.3	101	98.7	96.6	–
0.1 µM	111	99	–	–	–	–	–	-0.06
0.3 µM	100	104	–	–	–	–	–	-0.11
1000 nM	–	–	98	106	108	100	103	–
1 µM	101	99	–	–	–	–	–	0.02
3 µM	51	101	–	–	–	–	–	0.52
10000 nM	–	–	19.1	21.8	38.8	9.6	14.2	–

Conditions	drug sensitivity score	relative viability EC50 [µM]
Caco-2 [12]	–	2.99
Caco-2 [18]	4.7	–
Calu-3 [13]	–	3.53
Calu-3 [19]	3.9	–
HepG2 [11]	–	3.72
HepG2 [17]	2.8	–
U2OS [9]	–	3.16
U2OS [15]	5.1	–
Vero E6 [10]	–	3.36
Vero E6 [16]	4.5	–

drug-induced phospholipidosis [%], A549-ACE2 [14]
Conditions	0.3 µM	0.833333 µM	3.33333 µM	6.66667 µM	10 µM	30 µM
24 h	-0.85	2.59	9.31	10.3	4.47	3.32
48 h	3.76	2.95	-2.25	-3.67	–	–
72 h	4.47	2.39	-2.58	–	–	–

CN1CCC(CNc2ccc3ncc(-c4cccc(OC(F)(F)F)c4)n3n2)CC1 [SGI-1776]
Conditions	SARS-CoV-2 infection rate [%]	cell count [%]	cell viability [%]	morphology score	phospholipidosis EC50 [µM]
A549-ACE2 [7], 24 h	–	–	–	–	5.98
A549-ACE2 [7], 48 h	–	–	–	–	11.8
A549-ACE2 [7], 72 h	–	–	–	–	7.83
Caco-2 [4], 1 nM	–	–	102	–	–
Caco-2 [4], 10 nM	–	–	98.7	–	–
Caco-2 [4], 100 nM	–	–	101	–	–
Caco-2 [4], 1000 nM	–	–	88.2	–	–
Caco-2 [4], 10000 nM	–	–	58.6	–	–
Calu-3 [5], 1 nM	–	–	95.2	–	–
Calu-3 [5], 10 nM	–	–	88.7	–	–
Calu-3 [5], 100 nM	–	–	97.4	–	–
Calu-3 [5], 1000 nM	–	–	92.8	–	–
Calu-3 [5], 10000 nM	–	–	46.2	–	–
HepG2 [3], 1 nM	–	–	101	–	–
HepG2 [3], 10 nM	–	–	95.1	–	–
HepG2 [3], 100 nM	–	–	98.7	–	–
HepG2 [3], 1000 nM	–	–	99.9	–	–
HepG2 [3], 10000 nM	–	–	37.7	–	–
U2OS [1], 1 nM	–	–	102	–	–
U2OS [1], 10 nM	–	–	95.4	–	–
U2OS [1], 100 nM	–	–	100	–	–
U2OS [1], 1000 nM	–	–	92.1	–	–
U2OS [1], 10000 nM	–	–	52	–	–
Vero E6 [2], 1 nM	–	–	104	–	–
Vero E6 [2], 10 nM	–	–	104	–	–
Vero E6 [2], 100 nM	–	–	99.5	–	–
Vero E6 [2], 1000 nM	–	–	97	–	–
Vero E6 [2], 10000 nM	–	–	55	–	–
[6], 0.1 µM	–	–	–	0.31	–
[6], 0.3 µM	–	–	–	-0.09	–
[6], 1 µM	–	–	–	0.43	–
[6], 3 µM	–	–	–	0.76	–
[8], 0.1 µM	94	–	–	–	–
[8], 0.3 µM	106	–	–	–	–
[8], 1 µM	84	–	–	–	–
[8], 3 µM	48	–	–	–	–
[20], 0.1 µM	–	105	–	–	–
[20], 0.3 µM	–	95	–	–	–
[20], 1 µM	–	106	–	–	–
[20], 3 µM	–	113	–	–	–

Conditions	drug sensitivity score	relative viability EC50 [µM]
Caco-2 [18]	3.9	–
Calu-3 [13]	–	2.09
Calu-3 [19]	4.1	–
HepG2 [11]	–	3.15
HepG2 [17]	3.4	–
U2OS [15]	3.8	–
Vero E6 [16]	2.8	–

drug-induced phospholipidosis [%], A549-ACE2 [14]
Conditions	0.3 µM	0.833333 µM	3.33333 µM	6.66667 µM	10 µM	30 µM
24 h	8.28	2.67	25.6	59.2	81	100
48 h	2.75	0.46	18.4	53.2	85.9	–
72 h	3.7	-1.53	13.6	50.1	79.6	–
